Test results published in PMC9977574 (Gut, 2022).

Target: FKBP8 (FK506 binding protein 8) (Homo sapiens, UniProt Q14318)
Assay: microscale thermophoresis competition with recombinant proteins

Chain of FKBP8 (FK506 binding protein 8) (Q14318 whole entry): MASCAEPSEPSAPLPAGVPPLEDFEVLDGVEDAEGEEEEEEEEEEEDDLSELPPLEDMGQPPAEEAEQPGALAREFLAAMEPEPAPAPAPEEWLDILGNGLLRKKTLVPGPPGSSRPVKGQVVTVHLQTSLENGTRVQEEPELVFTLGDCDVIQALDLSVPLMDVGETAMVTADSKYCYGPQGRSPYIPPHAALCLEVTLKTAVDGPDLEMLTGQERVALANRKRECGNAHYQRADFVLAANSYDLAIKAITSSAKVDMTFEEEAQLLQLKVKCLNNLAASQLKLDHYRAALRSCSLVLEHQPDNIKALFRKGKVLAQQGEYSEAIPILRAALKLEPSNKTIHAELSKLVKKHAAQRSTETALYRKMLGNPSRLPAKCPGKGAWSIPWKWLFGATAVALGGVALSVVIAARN
Chain of FKBP8 (FK506 binding protein 8) (Q15746 whole entry partner): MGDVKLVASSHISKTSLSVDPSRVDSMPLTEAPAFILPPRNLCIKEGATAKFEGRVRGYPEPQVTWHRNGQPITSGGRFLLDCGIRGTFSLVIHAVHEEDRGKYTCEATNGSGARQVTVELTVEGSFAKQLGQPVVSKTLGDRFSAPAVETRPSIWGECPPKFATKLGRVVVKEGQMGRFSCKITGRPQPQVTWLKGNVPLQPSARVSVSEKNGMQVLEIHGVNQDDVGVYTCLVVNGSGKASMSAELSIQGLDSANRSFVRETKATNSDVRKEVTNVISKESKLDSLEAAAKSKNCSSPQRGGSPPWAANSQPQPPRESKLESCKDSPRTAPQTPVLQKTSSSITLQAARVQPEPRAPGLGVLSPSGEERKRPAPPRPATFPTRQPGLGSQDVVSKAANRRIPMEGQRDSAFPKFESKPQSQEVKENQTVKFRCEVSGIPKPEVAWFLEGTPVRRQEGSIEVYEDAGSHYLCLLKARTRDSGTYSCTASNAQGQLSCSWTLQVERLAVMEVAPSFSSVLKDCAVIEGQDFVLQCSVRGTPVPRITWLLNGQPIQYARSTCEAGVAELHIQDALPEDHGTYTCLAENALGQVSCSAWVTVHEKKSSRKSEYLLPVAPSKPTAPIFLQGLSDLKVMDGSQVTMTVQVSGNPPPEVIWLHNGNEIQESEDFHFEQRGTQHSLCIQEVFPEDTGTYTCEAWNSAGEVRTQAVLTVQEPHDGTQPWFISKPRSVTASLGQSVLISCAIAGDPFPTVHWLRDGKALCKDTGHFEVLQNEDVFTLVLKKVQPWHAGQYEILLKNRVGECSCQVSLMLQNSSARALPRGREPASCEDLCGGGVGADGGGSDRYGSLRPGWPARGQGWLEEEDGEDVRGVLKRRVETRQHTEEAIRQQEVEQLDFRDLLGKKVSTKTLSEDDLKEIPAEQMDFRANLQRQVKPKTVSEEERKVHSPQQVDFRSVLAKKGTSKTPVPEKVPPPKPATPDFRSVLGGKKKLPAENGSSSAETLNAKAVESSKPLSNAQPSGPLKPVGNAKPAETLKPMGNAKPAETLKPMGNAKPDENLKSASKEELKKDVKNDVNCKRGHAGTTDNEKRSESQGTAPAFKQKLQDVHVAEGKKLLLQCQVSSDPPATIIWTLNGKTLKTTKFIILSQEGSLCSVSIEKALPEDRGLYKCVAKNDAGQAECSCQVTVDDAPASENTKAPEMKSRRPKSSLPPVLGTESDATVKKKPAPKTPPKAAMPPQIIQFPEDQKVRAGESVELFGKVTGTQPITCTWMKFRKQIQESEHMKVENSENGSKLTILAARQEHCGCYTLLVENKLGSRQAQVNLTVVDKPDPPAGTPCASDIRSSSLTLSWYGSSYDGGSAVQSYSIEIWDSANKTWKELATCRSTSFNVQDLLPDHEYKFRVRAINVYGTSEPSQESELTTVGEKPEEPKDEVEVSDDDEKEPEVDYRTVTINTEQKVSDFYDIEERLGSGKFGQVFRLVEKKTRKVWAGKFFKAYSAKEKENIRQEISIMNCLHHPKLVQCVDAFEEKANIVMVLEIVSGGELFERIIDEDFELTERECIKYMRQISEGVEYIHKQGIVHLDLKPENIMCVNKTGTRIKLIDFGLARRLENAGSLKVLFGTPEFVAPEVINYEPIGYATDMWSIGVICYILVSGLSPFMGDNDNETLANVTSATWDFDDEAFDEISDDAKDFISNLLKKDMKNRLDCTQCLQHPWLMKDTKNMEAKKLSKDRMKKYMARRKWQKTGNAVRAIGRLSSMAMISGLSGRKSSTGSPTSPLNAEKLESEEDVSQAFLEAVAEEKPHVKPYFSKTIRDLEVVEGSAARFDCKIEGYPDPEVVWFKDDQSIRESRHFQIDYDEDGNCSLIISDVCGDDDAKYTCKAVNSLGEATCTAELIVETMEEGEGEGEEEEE

Structure (SMILES): C=CC[C@@H]1/C=C(\C)C[C@H](C)C[C@H](OC)[C@H]2O[C@@](O)(C(=O)C(=O)N3CCCC[C@H]3C(=O)O[C@H](/C(C)=C/[C@@H]3CC[C@@H](O)[C@H](OC)C3)[C@H](C)[C@@H](O)CC1=O)[C@H](C)C[C@@H]2OC [tacrolimus]
- IC50: 68.7 ± 13.3 µM
